Where a name gives a salt, the structure may show the parent alone. Read-outs that look alike come from different tables or passages of the source.
System: gastrointestinal motility
Assay: Effects on gastrointestinal motility in conscious dog (force transducers implanted on stomach and colon, motor index)
Type: in vivo
Conditions: Canis lupus familiaris, iv, 20 min, about two hours after feeding, motor index for twenty minutes before and after administration; for change in vivo at 0.1 mg/kg: dose 0.1 mg/kg i.v.; for change in vivo at 1 mg/kg: dose 1 mg/kg i.v.
Experimental: Under systemical anesthesia, force transducers were chronically implanted to the stomach and the colon of the adult male or female dogs in a direction to measure circular muscle contraction according to the method of Ito et al. (Japanese Journal of Smooth Muscle Research, 13, 33, 1976). A silicone tube chronically attached into jugular vein for intravenous administration of test compounds. After the animal was recovered from the operation, test compounds were administered at about two hours after feeding while gastrointestinal motility was measured. The gastrointestinal motility was indicated as motor index, and the effects of test compounds were estimated by the change of motor index for twenty minutes before and after the administration. […]

[1] = colon, read-out: Change of Motor Index (%) Colon
[2] = stomach, read-out: Change of Motor Index (%) Stomach

SMILES	change in vivo at 0.1 mg/kg [1] [%]	change in vivo at 0.1 mg/kg [2] [%]	change in vivo at 1 mg/kg [1] [%]	change in vivo at 1 mg/kg [2] [%]
CCOC(=O)CCN1[C@@H]2CCC[C@H]1C[C@@H](NC(=O)c1cc(Cl)c(N)cc1OC)C2 [Example 27, Ethyl endo-3-[3-(4-amino-5-chloro-2-methoxybenzamido)-9-azabicyclo[3.3.1]non-9-yl]propionate]	134	113	–	–
COc1cc(N)c(Cl)cc1C(=O)NC1CCN(C(C)C(=O)O)CC1 (stereo not drawn) [Example 63, 2-[4-(4-Amino-5-chloro-2-methoxybenzamido)piperidino]propionic acid]	–	–	157	130
COc1cc(N)c(Cl)cc1C(=O)N[C@H]1CCN(CC(=O)O)C[C@H]1OC (relative stereo) [Example 64, cis-[4-(4-Amino-5-chloro-2-methoxybenzamido)-3-methoxypiperidino]acetic acid]	234	200	–	–
COc1cc(N)c(Cl)cc1C(=O)N[C@H]1C[C@H]2CCC[C@@H](C1)N2CCCCCC(=O)O [Example 36, endo-6-[3-(4-Amino-5-chloro-2-methoxybenzamido)-9-azabicyclo[3.3.1]non-9-yl]hexanoic acid hydrochloride]	–	–	120	196
CCOc1cc(N)c(Cl)cc1C(=O)NC1CC2CCCC(C1)N2CC(=O)O (stereo not drawn) [Example 41, endo-[3-(4-Amino-5-chloro-2-ethoxybenzamido)-9-azabicyclo[3.3.1]non-9-yl]acetic acid hydrochloride]	–	–	172	118
COc1cc(N)c(Cl)cc1C(=O)N[C@H]1C[C@H]2CCC[C@@H](C1)N2CCCCC(=O)O [Example 39, endo-5-[3-(4-Amino-5-chloro-2-methoxybenzamido)-9-azabicyclo[3.3.1]non-9-yl]valeric acid hydrochloride]	159	135	–	–
COc1cc(N)c(Cl)cc1C(=O)NC1CC2CCC(C1)N2CC(=O)O (stereo not drawn) [Example 43, endo-[3-(4-Amino-5-chloro-2-methoxybenzamido)-8-azabicyclo[3.2.1]oct-8-yl]acetic acid hydrochloride]	–	–	505	166
COc1cc(N)c(Cl)cc1C(=O)N[C@H]1C[C@H]2CCC[C@@H](C1)N2CC(=O)O [Example 34, endo-[3-(4-Amino-5-chloro-2-methoxybenzamido)-9-azabicyclo[3.3.1]non-9-yl]acetic acid hydrochloride]	–	–	192	187
CCOC(=O)CN1[C@@H]2CC[C@H]1C[C@@H](NC(=O)c1cc(Cl)c(N)cc1OC)C2 [Example 32, Ethyl endo-[3-(4-amino-5-chloro-2-methoxybenzamido)-8-azabicyclo[3.2.1]oct-8-yl]acetate]	–	–	158	177
CCOC(=O)CCCCCN1[C@@H]2CCC[C@H]1C[C@@H](NC(=O)c1cc(Cl)c(N)cc1OC)C2 [Example 25, Ethyl endo-6-[3-(4-amino-5-chloro-2-methoxybenzamido)-9-azabicyclo[3.3.1]non-9-yl]hexanoate]	–	–	133	181
CCOC(=O)CN1CCC(NC(=O)c2cc(Cl)c(N)cc2OC)CC1 [Example 46, Ethyl [4-(4-amino-5-chloro-2-methoxybenzamido)piperidino]acetate hydrochloride]	–	–	166	182
CCOC(=O)CCCN1[C@@H]2CCC[C@H]1C[C@@H](NC(=O)c1cc(Cl)c(N)cc1OC)C2 [Example 24, Ethyl endo-4-[3-(4-amino-5-chloro-2-methoxybenzamido)-9-azabicyclo[3.3.1]non-9-yl]butyrate]	135	116	–	–
CCOC(=O)CCCCN1[C@@H]2CCC[C@H]1C[C@@H](NC(=O)c1cc(Cl)c(N)cc1OC)C2 [Example 28, Ethyl endo-5-[3-(4-amino-5-chloro-2-methoxybenzamido)-9-azabicyclo[3.3.1]non-9-yl]valerate]	–	–	164	142
COc1cc(N)c(Cl)cc1C(=O)N[C@H]1C[C@H]2CCC[C@@H](C1)N2CCC(=O)O [Example 38, endo-3-[3-(4-Amino-5-chloro-2-methoxybenzamido)-9-azabicyclo[3.3.1]non-9-yl]propionic acid hydrochloride]	–	–	140	146
CCOC(=O)CN1[C@@H]2CCC[C@H]1C[C@@H](NC(=O)c1cc(Cl)c(N)cc1OC)C2 [Example 23, Ethyl endo-[3-(4-amino-5-chloro-2-methoxybenzamido)-9-azabicyclo[3.3.1]non-9-yl]acetate]	–	–	133	134
COc1cc(N)c(Cl)cc1C(=O)N[C@H]1C[C@H]2CCC[C@@H](C1)N2CCCC(=O)O [Example 35, endo-4-[3-(4-Amino-5-chloro-2-methoxybenzamido)-9-azabicyclo[3.3.1]non-9-yl]butyric acid hydrochloride]	–	–	136	187
COc1cc(N)c(Cl)cc1C(=O)NC1CCN(CC(=O)O)CC1 [Example 58, [4-[(4-Amino-5-chloro-2-methoxybenzamido)piperidino]acetic acid hydrochloride]	218	181	–	–
CCOC(=O)CN1[C@@H]2CC[C@H]1C[C@H](NC(=O)c1cc(Cl)c(N)cc1OC)C2 [Example 33, Ethyl exo-[3-(4-amino-5-chloro-2-methoxybenzamido)-8-azabicyclo[3.2.1]oct-8-yl]acetate]	–	–	117	147
